# Source: patent US8202897B2, “Inhibitors of glutaminyl cyclases” (Probiodrug AG, priority 2007, dated 2012)
# What was measured:
# [1] = biological target: glutaminyl cyclase (QC) (Homo sapiens, UniProt Q16769); assay: QC inhibitor assay (fluorometric/spectrophotometric QC activity assay with inhibitor added)
# Sequence of glutaminyl cyclase (QC) (Q16769 29-361): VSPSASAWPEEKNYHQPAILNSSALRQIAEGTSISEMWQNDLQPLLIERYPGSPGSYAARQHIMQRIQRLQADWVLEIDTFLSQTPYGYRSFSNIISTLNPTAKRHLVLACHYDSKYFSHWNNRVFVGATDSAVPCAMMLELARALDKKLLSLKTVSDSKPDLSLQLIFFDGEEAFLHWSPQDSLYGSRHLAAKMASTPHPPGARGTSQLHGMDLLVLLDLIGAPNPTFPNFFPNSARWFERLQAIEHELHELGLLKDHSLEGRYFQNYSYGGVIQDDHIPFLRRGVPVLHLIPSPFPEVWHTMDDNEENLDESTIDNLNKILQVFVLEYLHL
# Experimental: All measurements were performed with a BioAssay Reader HTS-7000Plus for microplates (Perkin Elmer) at 30° C. QC activity was evaluated fluorometrically using H-Gln-βNA. The samples consisted of 0.2 mM fluorogenic substrate, 0.25 U pyroglutamyl aminopeptidase (Unizyme, Hørsholm, Denmark) in 0.2 M Tris/HCl, pH 8.0 containing 20 mM EDTA and an appropriately diluted aliquot of QC in a final volume of 250 μl. Excitation/emission wavelengths were 320/410 nm. The assay reactions were initiated by addition of glutaminyl cyclase. QC activity was determined from a standard curve of β-naphthylamine under assay conditions. One unit is defined as the amount of QC catalyzing the formation of 1 μmol pGlu-βNA from H-Gln-βNA per minute under the described conditions.
# In a second fluorometric assay, QC was activity determined using H-Gln-AMC as substrate. Reactions were carried out at 30° C. utilizing the NOVOStar reader for microplates (BMG labtechnologies). The samples consisted of varying concentrations of the fluorogenic substrate, 0.1 U pyroglutamyl aminopeptidase (Qiagen) in 0.05 M Tris/HCl, pH 8.0 containing 5 mM EDTA and an appropriately diluted aliquot of QC in a final volume of 250 μl. Excitation/emission wavelengths were 380/460 nm. The assay reactions were initiated by addition of glutaminyl cyclase. […] The kinetic data were evaluated using GraFit software.
# Samples consisted of the respective QC substrate, 0.3 mM NADH, 14 mM α-Ketoglutaric acid and 30 U/ml glutamate dehydrogenase in a final volume of 250 μl. […] All samples were measured at 30° C., using either the [sequence]luor Plus or the Sunrise (both from TECAN) reader for microplates. Kinetic data was evaluated using GraFit software.
# For inhibitor testing, the sample composition was the same as described above, except of the putative inhibitory compound added. For a rapid test of QC-inhibition, samples contained 4 mM of the respective inhibitor and a substrate concentration at 1 KM. For detailed investigations of the inhibition and determination of Ki-values, influence of the inhibitor on the auxiliary enzymes was investigated first. […] The inhibitory constant was evaluated by fitting the set of progress curves to the general equation for competitive inhibition using GraFit software.
Structure (SMILES),IC50 [1],Ki [1],melting point
"CCCCN/C(=C/[N+](=O)[O-])NCCCn1ccnc1 [Example 1, N-(3-(1H-imidazol-1-yl)propyl)-N-butyl-2-nitroethene-1.1-diamine]",13.2 µM,2.19 µM,
"O=[N+]([O-])/C=C(\NCCCn1ccnc1)Nc1ccc2c(c1)OCO2 [Example 9, N-(1-(3-(1H-imidazol-1-yl)propylamino)-2-nitrovinyl)benzo[d][1.3]dioxol-5-amine]",7.93 µM,0.95 µM,
"COc1ccc(N/C(=C/[N+](=O)[O-])NCCCn2ccnc2)c(OC)c1 [Example 10, N-(1-(3-(1H-imidazol-1-yl)propylamino)-2-nitrovinyl)-2.4-dimethoxy-benzenamine]",8.89 µM,0.92 µM,
"COc1cc(N/C(=C/[N+](=O)[O-])NCCCn2ccnc2)cc(OC)c1OC [Example 11, N-(1-(3-(1H-imidazol-1-yl)propylamino)-2-nitrovinyl)-3.4.5-trimethoxy-benzenamine]",6.41 µM,0.74 µM,41 to 43 °C
